Test results: patent US20100099561A1, “HETEROBICYCLIC ALKYLTHIO-BRIDGED ISOXAZOLINES” (E.I. DU PONT DE NEMOURS AND COMPANY, priority 2008, published 2010)

Key:
Format in all cases: in vivo
[1] = system: giant foxtail (Setaria faberi); assay: Test A preemergence, giant foxtail; settings: 0 to 100 scale (0 no effect, 100 complete control)
Outline: (§1)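 Scores reflect visual plant injury on a 0 (no effect) to 100 (complete control) scale, assessed about ten days after application in the greenhouse. Compounds were delivered in a non-phytotoxic solvent blend with surfactant, either preemergence to soil or postemergence at one- to two-leaf stage.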

[2] = system: giant foxtail (Setaria faberi); assay: Test A postemergence, giant foxtail; settings: 0 to 100 scale (0 no effect, 100 complete control)
Outline: as §1

[3] = system: umbrella sedge (Cyperus difformis); assay: Test B flooded paddy test, umbrella sedge; settings: Flood, scale 0 to 100
Outline: (§2)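 Compounds were added directly to paddy water over 2-leaf-stage plants in pots flooded 3 cm above soil, water depth maintained. Visual injury scored against controls after 13 to 15 days in greenhouse, 0 (none) to 100 (complete control); dash indicates no result.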

[4] = system: large crabgrass (Digitaria sanguinalis); assay: Test A preemergence, large crabgrass; settings: 0 to 100 scale (0 no effect, 100 complete control)
Outline: as §1

[5] = system: morningglory (Ipomoea spp.); assay: Test A preemergence, morningglory; settings: 0 to 100 scale (0 no effect, 100 complete control)
Outline: as §1

[6] = system: barnyardgrass (Echinochloa crus-galli); assay: Test A postemergence, barnyardgrass; settings: 0 to 100 scale (0 no effect, 100 complete control)
Outline: as §1

[7] = system: morningglory (Ipomoea spp.); assay: Test A postemergence, morningglory; settings: 0 to 100 scale (0 no effect, 100 complete control)
Outline: as §1

[8] = system: wheat (Triticum aestivum); assay: Test A preemergence, wheat; settings: 0 to 100 scale (0 no effect, 100 complete control)
Outline: as §1

[9] = system: pigweed (Amaranthus retroflexus); assay: Test A preemergence, pigweed; settings: 0 to 100 scale (0 no effect, 100 complete control)
Outline: as §1

[10] = system: wheat (Triticum aestivum); assay: Test A postemergence, wheat; settings: 0 to 100 scale (0 no effect, 100 complete control)
Outline: as §1

[11] = system: large crabgrass (Digitaria sanguinalis); assay: Test A postemergence, large crabgrass; settings: 0 to 100 scale (0 no effect, 100 complete control)
Outline: as §1

[12] = system: barnyardgrass (Echinochloa crus-galli); assay: Test B flooded paddy test, barnyardgrass; settings: Flood
Outline: as §2

corn (Zea mays) [13] = assay: Test A preemergence, corn; settings: 0 to 100 scale (0 no effect, 100 complete control)
Outline: as §1

[14] = system: velvetleaf (Abutilon theophrasti); assay: Test A postemergence, velvetleaf; settings: 0 to 100 scale (0 no effect, 100 complete control)
Outline: as §1

[15] = system: ducksalad (Heteranthera limosa); assay: Test B flooded paddy test, ducksalad; settings: Flood, scale 0 to 100
Outline: as §2

[16] = system: barnyardgrass (Echinochloa crus-galli); assay: Test A preemergence, barnyardgrass; settings: 0 to 100 scale (0 no effect, 100 complete control)
Outline: as §1

[17] = system: pigweed (Amaranthus retroflexus); assay: Test A postemergence, pigweed; settings: 0 to 100 scale (0 no effect, 100 complete control)
Outline: as §1

rice (Oryza sativa) = assay: Test B flooded paddy test, rice; settings: Flood, scale 0 to 100
Outline: as §2

corn (Zea mays) [18] = assay: Test A postemergence, corn; settings: 0 to 100 scale (0 no effect, 100 complete control)
Outline: as §1

[19] = system: velvetleaf (Abutilon theophrasti); assay: Test A preemergence, velvetleaf; settings: 0 to 100 scale (0 no effect, 100 complete control)
Outline: as §1

[20] = 250 g ai/ha, scale 0 to 100 (0 no effect, 100 complete control)

SMILES: CC1(C)CC([S+]([O-])Cc2c(C(F)(F)F)nc3n(c2=O)CCCCC3)=NO1 (centres unmarked) [Compound 34]
- Plant response rating, Foxtail, Giant ([1]; 125 g ai/ha): 0
- Plant response rating, Foxtail, Giant ([1]; 500 g ai/ha): 90
- Plant response rating, Foxtail, Giant ([2]; 125 g ai/ha): 0
- Plant response rating, Foxtail, Giant ([2]; 500 g ai/ha): 60
- Plant response rating, Sedge, Umbrella ([3]; 31 g ai/ha): 0
- Plant response rating, Sedge, Umbrella ([3]; 62 g ai/ha): 0
- Plant response rating, Sedge, Umbrella ([3]; 125 g ai/ha): 0
- Plant response rating, Sedge, Umbrella ([3]; 250 g ai/ha): 0
- Plant response rating, Crabgrass, Large ([4]; 125 g ai/ha): 0
- Plant response rating, Crabgrass, Large ([4]; 500 g ai/ha): 80
- Plant response rating, Morningglory ([5]; 125 g ai/ha): 0
- Plant response rating, Morningglory ([5]; 500 g ai/ha): 0
- Plant response rating, Barnyardgrass ([6]; 125 g ai/ha): 0
- Plant response rating, Barnyardgrass ([6]; 500 g ai/ha): 50
- Plant response rating, Morningglory ([7]; 125 g ai/ha): 30
- Plant response rating, Morningglory ([7]; 500 g ai/ha): 40
- Plant response rating, Wheat ([8]; 125 g ai/ha): 0
- Plant response rating, Wheat ([8]; 500 g ai/ha): 50
- Plant response rating, Pigweed ([9]; 125 g ai/ha): 0
- Plant response rating, Pigweed ([9]; 500 g ai/ha): 0
- Plant response rating, Wheat ([10]; 125 g ai/ha): 0
- Plant response rating, Wheat ([10]; 500 g ai/ha): 20
- Plant response rating, Crabgrass, Large ([11]; 125 g ai/ha): 0
- Plant response rating, Crabgrass, Large ([11]; 500 g ai/ha): 40
- Plant response rating, Barnyardgrass ([12]; 31 g ai/ha, scale 0 to 100): 0
- Plant response rating, Barnyardgrass ([12]; 62 g ai/ha, scale 0 to 100): 0
- Plant response rating, Barnyardgrass ([12]; 125 g ai/ha, scale 0 to 100): 0
- Plant response rating, Barnyardgrass [12, 20]: 0
- Plant response rating, Corn (corn (Zea mays) [13]; 125 g ai/ha): 0
- Plant response rating, Corn (corn (Zea mays) [13]; 500 g ai/ha): 0
- Plant response rating, Velvetleaf ([14]; 125 g ai/ha): 0
- Plant response rating, Velvetleaf ([14]; 500 g ai/ha): 0
- Plant response rating, Ducksalad ([15]; 31 g ai/ha): 0
- Plant response rating, Ducksalad ([15]; 62 g ai/ha): 0
- Plant response rating, Ducksalad ([15]; 125 g ai/ha): 0
- Plant response rating, Ducksalad ([15]; 250 g ai/ha): 0
- Plant response rating, Barnyardgrass ([16]; 125 g ai/ha): 0
- Plant response rating, Barnyardgrass ([16]; 500 g ai/ha): 70
- Plant response rating, Pigweed ([17]; 125 g ai/ha): 0
- Plant response rating, Pigweed ([17]; 500 g ai/ha): 0
- Plant response rating, Rice (rice (Oryza sativa); 31 g ai/ha): 0
- Plant response rating, Rice (rice (Oryza sativa); 62 g ai/ha): 0
- Plant response rating, Rice (rice (Oryza sativa); 125 g ai/ha): 0
- Plant response rating, Rice (rice (Oryza sativa); 250 g ai/ha): 0
- Plant response rating, Corn (corn (Zea mays) [18]; 125 g ai/ha): 0
- Plant response rating, Corn (corn (Zea mays) [18]; 500 g ai/ha): 0
- Plant response rating, Velvetleaf ([19]; 125 g ai/ha): 0
- Plant response rating, Velvetleaf ([19]; 500 g ai/ha): 0

SMILES: CC1(C)CC([S+]([O-])Cc2c(C(F)(F)Cl)nc3n(c2=O)CCCS3)=NO1 (centres unmarked) [Compound 36]
- Plant response rating, Foxtail, Giant ([1]; 125 g ai/ha): 30
- Plant response rating, Foxtail, Giant ([1]; 500 g ai/ha): 70
- Plant response rating, Foxtail, Giant ([2]; 125 g ai/ha): 50
- Plant response rating, Foxtail, Giant ([2]; 500 g ai/ha): 60
- Plant response rating, Sedge, Umbrella ([3]; 31 g ai/ha): 0
- Plant response rating, Sedge, Umbrella ([3]; 62 g ai/ha): 0
- Plant response rating, Sedge, Umbrella ([3]; 125 g ai/ha): 0
- Plant response rating, Sedge, Umbrella ([3]; 250 g ai/ha): 0
- Plant response rating, Crabgrass, Large ([4]; 125 g ai/ha): 30
- Plant response rating, Crabgrass, Large ([4]; 500 g ai/ha): 50
- Plant response rating, Morningglory ([5]; 125 g ai/ha): 0
- Plant response rating, Morningglory ([5]; 500 g ai/ha): 0
- Plant response rating, Barnyardgrass ([6]; 125 g ai/ha): 20
- Plant response rating, Barnyardgrass ([6]; 500 g ai/ha): 50
- Plant response rating, Morningglory ([7]; 125 g ai/ha): 0
- Plant response rating, Morningglory ([7]; 500 g ai/ha): 30
- Plant response rating, Wheat ([8]; 125 g ai/ha): 0
- Plant response rating, Wheat ([8]; 500 g ai/ha): 0
- Plant response rating, Pigweed ([9]; 125 g ai/ha): 0
- Plant response rating, Pigweed ([9]; 500 g ai/ha): 0
- Plant response rating, Wheat ([10]; 125 g ai/ha): 0
- Plant response rating, Wheat ([10]; 500 g ai/ha): 20
- Plant response rating, Crabgrass, Large ([11]; 125 g ai/ha): 30
- Plant response rating, Crabgrass, Large ([11]; 500 g ai/ha): 50
- Plant response rating, Barnyardgrass ([12]; 31 g ai/ha, scale 0 to 100): 0
- Plant response rating, Barnyardgrass ([12]; 62 g ai/ha, scale 0 to 100): 0
- Plant response rating, Barnyardgrass ([12]; 125 g ai/ha, scale 0 to 100): 0
- Plant response rating, Barnyardgrass [12, 20]: 0
- Plant response rating, Corn (corn (Zea mays) [13]; 125 g ai/ha): 0
- Plant response rating, Corn (corn (Zea mays) [13]; 500 g ai/ha): 10
- Plant response rating, Velvetleaf ([14]; 125 g ai/ha): 0
- Plant response rating, Velvetleaf ([14]; 500 g ai/ha): 0
- Plant response rating, Ducksalad ([15]; 31 g ai/ha): 0
- Plant response rating, Ducksalad ([15]; 62 g ai/ha): 0
- Plant response rating, Ducksalad ([15]; 125 g ai/ha): 0
- Plant response rating, Ducksalad ([15]; 250 g ai/ha): 0
- Plant response rating, Barnyardgrass ([16]; 125 g ai/ha): 0
- Plant response rating, Barnyardgrass ([16]; 500 g ai/ha): 60
- Plant response rating, Pigweed ([17]; 125 g ai/ha): 0
- Plant response rating, Pigweed ([17]; 500 g ai/ha): 0
- Plant response rating, Rice (rice (Oryza sativa); 31 g ai/ha): 0
- Plant response rating, Rice (rice (Oryza sativa); 62 g ai/ha): 0
- Plant response rating, Rice (rice (Oryza sativa); 125 g ai/ha): 0
- Plant response rating, Rice (rice (Oryza sativa); 250 g ai/ha): 0
- Plant response rating, Corn (corn (Zea mays) [18]; 500 g ai/ha): 0
- Plant response rating, Velvetleaf ([19]; 125 g ai/ha): 0
- Plant response rating, Velvetleaf ([19]; 500 g ai/ha): 0
